Test results reported in the supplement of paper PMC4862054.

Tested on: CAL-51
Experiment: normalised response (% of control), CellTiter-Glo; higher = more viable cells (100 = DMSO, 0 = benzethonium chloride kill control)
Conditions: incubation time: 72 h
In short: (§1)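 In 384-well plates holding compound at 5 concentrations in 10-fold steps over a 10,000-fold range specific to each compound, breast cancer cell lines were seeded as 20 µl suspension and incubated 72 h. CellTox Green fluorescence was measured at 485/520 nm, after which CellTiter-Glo luminescence was measured following 10 min at room temperature. Plate signals were normalised to 0.1 % DMSO (100) and a positive kill control (0), and each value is the normalised signal at a single concentration.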

Compound	normalised response [%]
CC1=C2C[C@H]3[C@@H](CC=C4C[C@@H](O)CC[C@@]43C)[C@@H]2CC[C@]12O[C@@H]1C[C@H](C)CN[C@H]1[C@H]2C [Cyclopamine] (1 nM)	107
CC1(C)CNc2cc(NC(=O)c3cccnc3NCc3ccncc3)ccc21 [Motesanib] (1 nM)	107
CC[C@@H]1C(=O)OC[C@@H]1Cc1cncn1C [Pilocarpine] (4 nM)	123
CC(C)(C)c1cnc(CSc2cnc(NC(=O)C3CCNCC3)s2)o1 [SNS-032] (1 nM)	86.2
Cn1cnc2c(F)c(Nc3ccc(Br)cc3Cl)c(C(=O)NOCCO)cc21 [Selumetinib] (1 nM)	99.8
Nc1nc2[nH]cnc2c(=S)[nH]1 [Thioguanine] (1 nM)	77.6

Tested on: CAL-120
Experiment: as above
Conditions: incubation time: 72 h
In short: as §1

Compound	normalised response [%]
O=NN(CCCl)C(=O)NCCCl [Carmustine] (1 nM)	100
CC1=C2C[C@H]3[C@@H](CC=C4C[C@@H](O)CC[C@@]43C)[C@@H]2CC[C@]12O[C@@H]1C[C@H](C)CN[C@H]1[C@H]2C [Cyclopamine] (1 nM)	107
CC1(C)CNc2cc(NC(=O)c3cccnc3NCc3ccncc3)ccc21 [Motesanib] (1 nM)	94
CC[C@@H]1C(=O)OC[C@@H]1Cc1cncn1C [Pilocarpine] (4 nM)	94
CC(C)(C)c1cnc(CSc2cnc(NC(=O)C3CCNCC3)s2)o1 [SNS-032] (1 nM)	91.2
Cn1cnc2c(F)c(Nc3ccc(Br)cc3Cl)c(C(=O)NOCCO)cc21 [Selumetinib] (1 nM)	93.3
Nc1nc2[nH]cnc2c(=S)[nH]1 [Thioguanine] (1 nM)	93.3

Tested on: DU-4475
Experiment: as above
Conditions: incubation time: 72 h
In short: as §1

Compound	normalised response [%]
O=NN(CCCl)C(=O)NCCCl [Carmustine] (1 nM)	103
CC1=C2C[C@H]3[C@@H](CC=C4C[C@@H](O)CC[C@@]43C)[C@@H]2CC[C@]12O[C@@H]1C[C@H](C)CN[C@H]1[C@H]2C [Cyclopamine] (1 nM)	106
CC1(C)CNc2cc(NC(=O)c3cccnc3NCc3ccncc3)ccc21 [Motesanib] (1 nM)	99.9
CC[C@@H]1C(=O)OC[C@@H]1Cc1cncn1C [Pilocarpine] (4 nM)	100
CC(C)(C)c1cnc(CSc2cnc(NC(=O)C3CCNCC3)s2)o1 [SNS-032] (1 nM)	98.2
Cn1cnc2c(F)c(Nc3ccc(Br)cc3Cl)c(C(=O)NOCCO)cc21 [Selumetinib] (1 nM)	95.5
Nc1nc2[nH]cnc2c(=S)[nH]1 [Thioguanine] (1 nM)	96.7

Tested on: Hs578T
Experiment: as above
Conditions: incubation time: 72 h
In short: as §1

Compound	normalised response [%]
O=NN(CCCl)C(=O)NCCCl [Carmustine] (1 nM)	100
CC1=C2C[C@H]3[C@@H](CC=C4C[C@@H](O)CC[C@@]43C)[C@@H]2CC[C@]12O[C@@H]1C[C@H](C)CN[C@H]1[C@H]2C [Cyclopamine] (1 nM)	103
CC1(C)CNc2cc(NC(=O)c3cccnc3NCc3ccncc3)ccc21 [Motesanib] (1 nM)	96.9
CC[C@@H]1C(=O)OC[C@@H]1Cc1cncn1C [Pilocarpine] (4 nM)	103
CC(C)(C)c1cnc(CSc2cnc(NC(=O)C3CCNCC3)s2)o1 [SNS-032] (1 nM)	97.6
Cn1cnc2c(F)c(Nc3ccc(Br)cc3Cl)c(C(=O)NOCCO)cc21 [Selumetinib] (1 nM)	99
Nc1nc2[nH]cnc2c(=S)[nH]1 [Thioguanine] (1 nM)	101

Tested on: CAL-148
Experiment: as above
Conditions: incubation time: 72 h
In short: as §1

Compound	normalised response [%]
O=NN(CCCl)C(=O)NCCCl [Carmustine] (1 nM)	89.3
CC1=C2C[C@H]3[C@@H](CC=C4C[C@@H](O)CC[C@@]43C)[C@@H]2CC[C@]12O[C@@H]1C[C@H](C)CN[C@H]1[C@H]2C [Cyclopamine] (1 nM)	123
CC1(C)CNc2cc(NC(=O)c3cccnc3NCc3ccncc3)ccc21 [Motesanib] (1 nM)	89.4
CC[C@@H]1C(=O)OC[C@@H]1Cc1cncn1C [Pilocarpine] (4 nM)	96.4
CC(C)(C)c1cnc(CSc2cnc(NC(=O)C3CCNCC3)s2)o1 [SNS-032] (1 nM)	92.2
Cn1cnc2c(F)c(Nc3ccc(Br)cc3Cl)c(C(=O)NOCCO)cc21 [Selumetinib] (1 nM)	87.8
Nc1nc2[nH]cnc2c(=S)[nH]1 [Thioguanine] (1 nM)	95.3

Tested on: MDA-MB-231
Experiment: as above
Conditions: incubation time: 72 h
In short: as §1

Compound	normalised response [%]
O=NN(CCCl)C(=O)NCCCl [Carmustine] (1 nM)	98.2
CC1=C2C[C@H]3[C@@H](CC=C4C[C@@H](O)CC[C@@]43C)[C@@H]2CC[C@]12O[C@@H]1C[C@H](C)CN[C@H]1[C@H]2C [Cyclopamine] (1 nM)	103
CC1(C)CNc2cc(NC(=O)c3cccnc3NCc3ccncc3)ccc21 [Motesanib] (1 nM)	97.1
CC[C@@H]1C(=O)OC[C@@H]1Cc1cncn1C [Pilocarpine] (4 nM)	96.1
CC(C)(C)c1cnc(CSc2cnc(NC(=O)C3CCNCC3)s2)o1 [SNS-032] (1 nM)	97.5
Cn1cnc2c(F)c(Nc3ccc(Br)cc3Cl)c(C(=O)NOCCO)cc21 [Selumetinib] (1 nM)	97
Nc1nc2[nH]cnc2c(=S)[nH]1 [Thioguanine] (1 nM)	96.2

Tested on: BT-474
Experiment: as above
Conditions: incubation time: 72 h
In short: as §1

Compound	normalised response [%]
O=NN(CCCl)C(=O)NCCCl [Carmustine] (1 nM)	97
CC1=C2C[C@H]3[C@@H](CC=C4C[C@@H](O)CC[C@@]43C)[C@@H]2CC[C@]12O[C@@H]1C[C@H](C)CN[C@H]1[C@H]2C [Cyclopamine] (1 nM)	103
CC1(C)CNc2cc(NC(=O)c3cccnc3NCc3ccncc3)ccc21 [Motesanib] (1 nM)	91.2
CC[C@@H]1C(=O)OC[C@@H]1Cc1cncn1C [Pilocarpine] (4 nM)	91.7
CC(C)(C)c1cnc(CSc2cnc(NC(=O)C3CCNCC3)s2)o1 [SNS-032] (1 nM)	92.2
Cn1cnc2c(F)c(Nc3ccc(Br)cc3Cl)c(C(=O)NOCCO)cc21 [Selumetinib] (1 nM)	84.7
Nc1nc2[nH]cnc2c(=S)[nH]1 [Thioguanine] (1 nM)	98.1

Tested on: MFM-223
Experiment: as above
Conditions: incubation time: 72 h
In short: as §1

Compound	normalised response [%]
O=NN(CCCl)C(=O)NCCCl [Carmustine] (1 nM)	94.2
CC1=C2C[C@H]3[C@@H](CC=C4C[C@@H](O)CC[C@@]43C)[C@@H]2CC[C@]12O[C@@H]1C[C@H](C)CN[C@H]1[C@H]2C [Cyclopamine] (1 nM)	103
CC1(C)CNc2cc(NC(=O)c3cccnc3NCc3ccncc3)ccc21 [Motesanib] (1 nM)	101
CC[C@@H]1C(=O)OC[C@@H]1Cc1cncn1C [Pilocarpine] (4 nM)	101
CC(C)(C)c1cnc(CSc2cnc(NC(=O)C3CCNCC3)s2)o1 [SNS-032] (1 nM)	92
Cn1cnc2c(F)c(Nc3ccc(Br)cc3Cl)c(C(=O)NOCCO)cc21 [Selumetinib] (1 nM)	94.9
Nc1nc2[nH]cnc2c(=S)[nH]1 [Thioguanine] (1 nM)	94.1

Tested on: CAL-85-1
Experiment: as above
Conditions: incubation time: 72 h
In short: as §1

Compound	normalised response [%]
O=NN(CCCl)C(=O)NCCCl [Carmustine] (1 nM)	94.4
CC1=C2C[C@H]3[C@@H](CC=C4C[C@@H](O)CC[C@@]43C)[C@@H]2CC[C@]12O[C@@H]1C[C@H](C)CN[C@H]1[C@H]2C [Cyclopamine] (1 nM)	100
CC1(C)CNc2cc(NC(=O)c3cccnc3NCc3ccncc3)ccc21 [Motesanib] (1 nM)	96
CC[C@@H]1C(=O)OC[C@@H]1Cc1cncn1C [Pilocarpine] (4 nM)	95
CC(C)(C)c1cnc(CSc2cnc(NC(=O)C3CCNCC3)s2)o1 [SNS-032] (1 nM)	105
Cn1cnc2c(F)c(Nc3ccc(Br)cc3Cl)c(C(=O)NOCCO)cc21 [Selumetinib] (1 nM)	104
Nc1nc2[nH]cnc2c(=S)[nH]1 [Thioguanine] (1 nM)	92.8

Tested on: SK-BR-3
Experiment: as above
Conditions: incubation time: 72 h
In short: as §1

Compound	normalised response [%]
O=NN(CCCl)C(=O)NCCCl [Carmustine] (1 nM)	90.5
CC1=C2C[C@H]3[C@@H](CC=C4C[C@@H](O)CC[C@@]43C)[C@@H]2CC[C@]12O[C@@H]1C[C@H](C)CN[C@H]1[C@H]2C [Cyclopamine] (1 nM)	115
CC1(C)CNc2cc(NC(=O)c3cccnc3NCc3ccncc3)ccc21 [Motesanib] (1 nM)	92.1
